Reference: US20250368682A1, “NOVEL POLYPEPTIDE COMPOSITION FOR INTRACELLULAR TRANSFECTION” (AZOTHBIO INC., priority 2022, published 2025)

Legend:
Type in all cases: cell-based
Jurkat T cells [1] = test: pEGFP-N3 plasmid DNA delivery, GFP expression by immunoblotting; settings: for GFP expression depending on copy number of NLS: 2, 3 or 4 copies of NLS after 10 leucines; for plasmid DNA delivery efficiency depending on leucine length: 10 or 11 leucines with 2×NLS, same experiment as Example 1-1
Procedure: Specific sequences thereof are shown in Table 2 below (Peptides 1 to 10). Each of the above peptides at a concentration of 4 μM was mixed with 2 μg of pEGFP-N3 plasmid for 30 minutes in a CO2 incubator at 37° C. After transfection of the plasmids into Jurkat T cells for 30 minutes, the expression of GFP was analyzed by immunoblotting after 24 hours (FIG. 1).
Peptides containing 10 or 11 leucine amino acids and 2×NLS linked thereto were prepared (Peptides 1 and 11), and based on these peptides, the effect of the number of leucine amino acids on the transmission level was further determined. Each of the above peptides was subjected to the same experiment as in Example 1-1, and then the expression of GFP was analyzed by immunoblotting (FIG. 2).
Peptides were prepared by varying the copy number of NLS, located following the 10 leucine amino acid sequences, to 2, 3, or 4, and specific sequences thereof are shown in Table 2 below (Peptides 1, 12, and 13). For each peptide, the change in GFP expression depending on the copy number of NLS was confirmed by immunoblotting (FIG. 3).
Accordingly, the copy number of NLS was set to 2, and a peptide (L10-2×NLS) in which the NLS amino acid sequence was located at the C-terminus, following leucine, and a peptide (2×NLS-L10) in which the NLS amino acid sequence was located at the N-terminus, preceding leucine, were prepared. Each of the above peptides (Peptide 1 and 14) was mixed with pEGFP-N3 and transfected into Jurkat T cells. Then, the expression changes of GFP were compared.
L10-2×NLS at different concentrations (2, 3, 4, 5, or 6 μM) was mixed with 2 μg of pEGFP-N3 and transfected into Jurkat T cells. The expression of GFP was then confirmed by immunoblotting (FIG. 5).
Next, pEGFP-N3 at different concentrations (0, 0.25, 0.5, 1, 2, 4, 5, or 6 μg) was mixed with 4 μM of L10-2×NLS and transfected into Jurkat T cells. The expression of GFP was then confirmed by immunoblotting (FIG. 6).
First, 4 μM L10-2×NLS and 2 μg pEGFP-N3 were mixed at 4, 16, 25, 37, or 42° C. for 30 minutes and transfected into Jurkat T cells for 30 minutes. […] (FIG. 7).
Thus, the temperature was set to 37° C., and 4 μM L10-2×NLS and 2 μg pEGFP-N3 were mixed for different times (10, 20, 30, 40, 50, or 60 minutes).
Finally, in an experiment as to the buffer used for the mixing, 4 μM of L10-2×NLS and 2 μg of pEGFP-N3 were mixed with Opti-MEM, DPBS, or Serum free RPMI-1640 (SF) buffer, respectively.
L10-2×NLS (4 μM) and pEGFP-N3 (2 μg) were mixed according to the above optimized conditions and transfected into Jurkat T cells for 0.5, 1, 2, 3, 4, or 5 hours to compare the changes in GFP expression over time (FIG. 10).

human primary T cells = test: CAR plasmid DNA delivery, CAR expression by immunoblotting with FLAG antibody; settings: 4 μM L10-2×NLS, 2 μg FLAG-tagged CAR plasmid DNA, after 24 hours
Procedure: L10-2×NLS (4 μM) and FLAG-tagged CAR plasmid DNA (2 μg) were mixed and transfected into human primary T cells. After 24 hours, CAR expression in the human primary CD8+ T cells was confirmed by immunoblotting using FLAG antibody (FIG. 19).

Jurkat T cells [2] = test: FITC-labeled IgG antibody delivery efficiency by FACS; settings: L10-2×NLS 4 μM or higher, 1 μg FITC-labeled IgG, 2 hours
Procedure: FITC-labeled IgG (Thermofisher) (1 μg) was mixed with L10-2×NLS at different concentrations (0.5, 1, 2, 4, or 6 μM). Each mixture was treated with Jurkat T cells for 2 hours, and then the antibody delivery efficiency to cells was confirmed using Novocyte FACS (Agilent) (FIG. 21), and the presence of the corresponding antibodies in cells was observed using a fluorescence microscope (Leica) (FIG. 22).

Jurkat T cells [3] = test: Cell morphology and viability (MTT assay) after transfection; settings: 4 μM L10-2×NLS, 2 μg pEGFP-N3, morphology after 24 hours
Procedure: L10-2×NLS (4 μM) and pEGFP-N3 (2 μg) were mixed and transfected into Jurkat T cells, and changes in cell morphology after 24 hours were observed (FIG. 14). The cell viability after transfection was analyzed using MTT assay (FIG. 15).

Jurkat T cells [4] = test: Location of fluorescein-labeled plasmid DNA by fluorescence microscope (Hoechst 33342)
Description: Next, fluorescein-labeled plasmid DNA and L10-2×NLS were mixed and transfected into Jurkat T cells, followed by treatment with nucleus staining reagent Hoechst 33342 (ThermoFisher). The location of the plasmid DNA in Jurkat T cells was then confirmed using a fluorescence microscope (Leica) (FIG. 17), and the data were quantified and analyzed through graphical representation (FIG. 18).

Jurkat T cells [5] = test: Fluorescein-labeled plasmid DNA delivery efficiency by FACS; settings: after 0.5 hours; 2 μg fluorescein-labeled plasmid DNA, 4 μM L10-2×NLS
Procedure: Fluorescein-labeled plasmid DNA (Takara) (2 μg) was mixed with L10-2×NLS (4 μM) and transfected into Jurkat T cells for 0.5, 1, 2, 3, 4, or 5 hours. Then, the delivery efficiency of the plasmid DNA into Jurkat T cells was analyzed using Novocyte FACS (Agilent) (FIG. 16).

With “Ac-LLLLLLLLLLPKKKRKVPKKKRKV-NH2 [L10-2×NLS]” the “transfection level compared to Lipofectamine” value (Jurkat T cells [1]; 4 μM peptide, 2 μg pEGFP-N3, immunoblot after 24 hours) was “significantly higher level compared to Lipofectamine®”, the “GFP expression depending on hydrophobic amino acid type” value (Jurkat T cells [1]; 4 μM peptide, 2 μg pEGFP-N3, mixed 30 min at 37° C., transfection 30 min, immunoblot after 24 hours, among Peptides 1 to 10) was “highest GFP expression” and the “GFP expression depending on copy number of NLS” value (Jurkat T cells [1]) was “highest expression of GFP”. For the same substance, the “plasmid DNA delivery efficiency depending on leucine length” value (Jurkat T cells [1]) was “highest efficiency”, the “transformation efficiency depending on N-terminal/C-terminal location of NLS” value (Jurkat T cells [1]; L10-2×NLS compared with 2×NLS-L10) was “high efficiency” and the “GFP expression depending on mixing buffer” value (Jurkat T cells [1]; Opti-MEM, DPBS or Serum free RPMI-1640) was “transfection levels were maintained”. The “GFP expression efficiency depending on pEGFP-N3 amount” value (Jurkat T cells [1]; at 2 μg pEGFP-N3 (tested 0-6 μg), 4 μM L10-2×NLS) was “highest”, the “GFP expression efficiency depending on L10-2×NLS concentration” value (Jurkat T cells [1]; at 4 μM (tested 2, 3, 4, 5, 6 μM), 2 μg pEGFP-N3) was “highest expression efficiency of GFP” and the “GFP expression depending on mixing temperature” value (Jurkat T cells [1]; mixing at 37° C. (tested 4, 16, 25, 37, 42° C.) for 30 minutes) was “highest expression of GFP”. For the same substance, the “GFP expression depending on mixing time” value (Jurkat T cells [1]; mixing time 30 minutes (tested 10-60 minutes), 37° C.) was “highest expression level”, the “GFP expression depending on transfection time” value (Jurkat T cells [1]; transfection for 0.5 or 1 hour (tested 0.5-5 hours)) was “sufficient to deliver plasmid DNA” and the “CAR expression in human primary CD8+ T cells” value (human primary T cells) was “confirmed”. The antibody delivery efficiency (Jurkat T cells [2]) was “approximately 90%”, the “cell damage or cell death after transfection” value (Jurkat T cells [3]) was “did not cause any damage or cell death” and the “plasmid DNA delivery to cells” value (Jurkat T cells [4]; 1 hour after transfection) was “delivered to the majority of cells”. For the same substance, the “plasmid DNA found in the nucleus, efficiency” value (Jurkat T cells [4]; at 4 hours) was “approximately 40%” and the “plasmid DNA delivery efficiency” value (Jurkat T cells [5]) was “about 90%”.

For “N′-LLLLLLLLLLLPKKKRKVPKKKRKV-C′ (Ac-LLLLLLLLLLLPKKKRKVPKKKRKV-NH2) [Peptide 11]”, the “plasmid DNA delivery efficiency depending on leucine length” value (Jurkat T cells [1]) was “a certain level of high efficiency was maintained”.

“N′-LLLLLLLLLLPKKKRKVPKKKRKVPKKKRKV-C′ (Ac-LLLLLLLLLLPKKKRKVPKKKRKVPKKKRKV-NH2) [Peptide 12]” was tested, and the “GFP expression depending on copy number of NLS” value (Jurkat T cells [1]) was “maintained above a certain level”.

For “N′-LLLLLLLLLLPKKKRKVPKKKRKVPKKKRKVPKKKRKV-C′ (Ac-LLLLLLLLLLPKKKRKVPKKKRKVPKKKRKVPKKKRKV-NH2) [Peptide 13]”, the “GFP expression depending on copy number of NLS” value (Jurkat T cells [1]) was “maintained above a certain level”.
